Test results reported in ChEMBL document CHEMBL1201862, “PubChem BioAssay data set” (2004).
Activity calls are given as the source filed them.

Tests used:
Leucine aminopeptidase = target: T1, Leucine aminopeptidase (Plasmodium falciparum 3D7, UniProt Q8IL11); test: P. falciparum M17LAP inhibitors, primary screen, biochemical, fluorogenic H-Leu-NHMec substrate, 1536-well (AID 1619); format: functional
T1 sequence (Q8IL11 whole entry): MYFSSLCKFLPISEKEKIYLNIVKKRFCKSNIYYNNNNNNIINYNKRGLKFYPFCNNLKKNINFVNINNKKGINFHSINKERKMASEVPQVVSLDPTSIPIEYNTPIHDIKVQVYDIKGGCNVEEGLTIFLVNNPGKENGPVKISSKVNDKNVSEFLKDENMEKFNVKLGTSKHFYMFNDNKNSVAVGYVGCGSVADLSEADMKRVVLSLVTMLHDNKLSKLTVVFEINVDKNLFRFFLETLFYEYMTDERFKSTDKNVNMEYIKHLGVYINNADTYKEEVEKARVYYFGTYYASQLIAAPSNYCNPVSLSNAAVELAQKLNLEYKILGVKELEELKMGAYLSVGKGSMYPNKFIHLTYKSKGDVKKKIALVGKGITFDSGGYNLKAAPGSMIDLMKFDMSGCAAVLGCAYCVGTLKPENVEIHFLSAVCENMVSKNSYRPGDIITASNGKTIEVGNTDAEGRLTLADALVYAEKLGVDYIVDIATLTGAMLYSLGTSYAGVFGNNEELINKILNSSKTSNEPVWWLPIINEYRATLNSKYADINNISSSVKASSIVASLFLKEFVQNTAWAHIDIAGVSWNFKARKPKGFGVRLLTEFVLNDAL

[1] = HEK-293T viability loss after treatment – luminescence, T-cell screen hits, cytotoxicity control for TCR NF-kB inhibitor project, dose response (AID 489026); format: functional, cell-based;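 note: cells exposed to compound about 14 hours before the viability readout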
[2] = target: Voltage-dependent T-type calcium channel subunit alpha-1H (Homo sapiens, UniProt O95180); format: functional;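 note: channel activity triggered by adding a high calcium stimulation buffer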
Genome polyprotein = Genome polyprotein (dengue virus type 2, UniProt P29990); test: flavivirus cap methylation enzyme inhibition – biochemical, confirmation dose response, primary screen (AID 588689); format: functional
[3] = target: T2, Voltage-gated N-type calcium channel alpha-1B subunit/Amyloid beta A4 precursor protein-binding family A member 1 (Homo sapiens, UniProt Q00975+Q02410); format: protein assay
[4] = target: T2, Voltage-gated N-type calcium channel alpha-1B subunit/Amyloid beta A4 precursor protein-binding family A member 1; format: protein assay; remark: listed apart in the source
[5] = luciferase reporter signal suppression in cells – H4 neuroglioma cells, luminescence, dose response (AID 1990); format: functional, cell-based
[6] = Luminescence Cell-Based Dose Response HTS to Identify Inhibitors of 5'UTR Stem-Loop Driven Prion Protein mRNA Translation in H4 Neuroglioblastoma Cells. [Related pubchem assays: 1827 (Project Summary), 1813 (Primary HTS)]; format: functional
[7] = alpha-synuclein stem-loop luciferase translation blockers – H4 neuroglioma cells, luminescence, confirmation (AID 1988); format: functional, cell-based
[8] = HEK-293T cell viability reduction – luminescence, B-cell screen hits, cytotoxicity control for BCR NF-kB inhibitor project, dose response (AID 489021); format: functional, cell-based;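 note: HEK-293T cells carrying an NF-kB luciferase reporter; cells exposed to compound for about 14 hours before viability readout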
[9] = viability loss in THP-1 monocytes – THP-1 cells, cytotoxicity control for Vif-APOBEC3G degradation inhibitor project, dose response (AID 1117359); format: functional; settings: THP-1
cells = format: functional
Large T antigen = Large T antigen (Simian virus 40, UniProt P03070); format: functional, Betapolyomavirus macacae;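 note: Confirmatory-stage PubChem screen for compounds that inhibit SV40 T antigen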
[10] = target: FAD-linked sulfhydryl oxidase ALR (Homo sapiens, UniProt P55789); test: ALR-catalysed DTT oxidation blockers – biochemical, H2O2 detection, luminescence, cherry-pick, dose response (AID 493248)
[11] = target: T3, Histone-lysine N-methyltransferase NSD2 (Homo sapiens, UniProt O96028); format: biochemical
T3 sequence (O96028 whole entry): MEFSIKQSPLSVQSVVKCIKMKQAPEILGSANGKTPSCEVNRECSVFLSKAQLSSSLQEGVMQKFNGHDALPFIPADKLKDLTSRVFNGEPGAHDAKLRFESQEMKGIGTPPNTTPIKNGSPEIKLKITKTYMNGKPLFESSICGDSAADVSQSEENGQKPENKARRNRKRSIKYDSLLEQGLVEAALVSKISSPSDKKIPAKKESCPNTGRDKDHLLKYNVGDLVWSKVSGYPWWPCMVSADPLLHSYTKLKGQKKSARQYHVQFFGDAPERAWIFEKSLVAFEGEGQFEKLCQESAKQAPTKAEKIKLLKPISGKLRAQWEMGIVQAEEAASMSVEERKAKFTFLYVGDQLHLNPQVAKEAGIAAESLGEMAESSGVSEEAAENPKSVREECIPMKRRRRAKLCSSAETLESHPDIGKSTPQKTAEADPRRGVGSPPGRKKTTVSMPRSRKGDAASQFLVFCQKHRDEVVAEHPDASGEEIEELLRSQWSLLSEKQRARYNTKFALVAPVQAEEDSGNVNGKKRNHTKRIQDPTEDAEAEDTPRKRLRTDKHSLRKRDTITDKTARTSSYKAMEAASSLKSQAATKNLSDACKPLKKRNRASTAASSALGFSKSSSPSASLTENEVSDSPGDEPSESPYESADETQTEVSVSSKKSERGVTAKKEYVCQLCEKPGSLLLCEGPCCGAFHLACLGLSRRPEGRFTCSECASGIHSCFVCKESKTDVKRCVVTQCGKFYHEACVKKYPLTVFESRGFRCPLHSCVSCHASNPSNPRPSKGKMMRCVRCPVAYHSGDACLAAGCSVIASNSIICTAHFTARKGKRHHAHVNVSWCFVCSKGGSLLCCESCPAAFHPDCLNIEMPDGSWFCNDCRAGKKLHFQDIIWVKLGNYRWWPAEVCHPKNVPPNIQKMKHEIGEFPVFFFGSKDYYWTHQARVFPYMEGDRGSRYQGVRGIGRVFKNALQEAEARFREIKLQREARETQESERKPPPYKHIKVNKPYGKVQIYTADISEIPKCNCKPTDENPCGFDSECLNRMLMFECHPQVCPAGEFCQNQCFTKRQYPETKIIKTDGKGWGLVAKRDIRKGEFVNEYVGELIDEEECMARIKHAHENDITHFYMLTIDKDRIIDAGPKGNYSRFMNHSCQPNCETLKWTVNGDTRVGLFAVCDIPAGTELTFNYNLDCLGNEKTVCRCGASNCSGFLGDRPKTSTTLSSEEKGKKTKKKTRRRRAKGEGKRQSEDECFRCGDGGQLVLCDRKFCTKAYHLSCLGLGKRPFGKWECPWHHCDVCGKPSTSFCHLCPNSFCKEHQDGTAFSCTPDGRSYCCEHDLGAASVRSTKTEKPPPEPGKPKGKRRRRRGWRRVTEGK

[12] = target: T4, RNA-binding protein pos-1 (Caenorhabditis elegans, UniProt G5EF15); test: disruptors of C. elegans POS-1 RNA interaction – biochemical, fluorescence polarization, dose response (AID 1964);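 note: purified POS-1 fused to maltose binding protein made in E. coli; potency of compounds blocking POS-1 binding to fluorescent RNA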
T4 sequence (G5EF15 whole entry): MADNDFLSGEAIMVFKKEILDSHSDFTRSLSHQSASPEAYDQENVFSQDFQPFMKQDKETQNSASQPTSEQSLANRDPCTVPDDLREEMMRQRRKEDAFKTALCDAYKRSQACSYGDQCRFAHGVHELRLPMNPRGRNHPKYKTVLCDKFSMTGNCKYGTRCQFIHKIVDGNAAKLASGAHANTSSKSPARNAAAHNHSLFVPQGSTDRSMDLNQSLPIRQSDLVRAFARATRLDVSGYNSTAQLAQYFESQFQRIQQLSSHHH

[13] = target: T5, Zinc finger protein mex-5 (Caenorhabditis elegans, UniProt Q9XUB2); test: potency of MEX-5 RNA-binding blockers – biochemical, C. elegans, fluorescence polarization, dose response (AID 1960)
T5 sequence (Q9XUB2 whole entry): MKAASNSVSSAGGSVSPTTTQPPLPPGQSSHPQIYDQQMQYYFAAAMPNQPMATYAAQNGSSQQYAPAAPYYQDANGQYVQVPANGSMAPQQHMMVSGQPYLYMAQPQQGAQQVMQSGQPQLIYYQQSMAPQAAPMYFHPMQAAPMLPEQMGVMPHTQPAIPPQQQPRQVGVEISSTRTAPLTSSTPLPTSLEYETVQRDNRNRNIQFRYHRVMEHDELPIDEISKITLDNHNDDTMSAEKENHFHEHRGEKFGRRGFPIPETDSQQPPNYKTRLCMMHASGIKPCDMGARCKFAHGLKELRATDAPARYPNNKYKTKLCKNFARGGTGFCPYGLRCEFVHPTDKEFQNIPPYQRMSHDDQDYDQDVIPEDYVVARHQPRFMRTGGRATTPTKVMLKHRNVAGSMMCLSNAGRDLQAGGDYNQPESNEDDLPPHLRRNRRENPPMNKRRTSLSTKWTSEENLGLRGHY

[14] = target: T6, Polyadenylate-binding protein 1 (Homo sapiens, UniProt P11940); test: MLLE binding blockers, Cy5 peptide tracer – biochemical, fluorescence polarization, Cy5-PAM2 peptide, secondary, miRNA deadenylation inhibitor project, dose response (AID 602260); format: functional; settings: read-out: IC50_Mean
[15] = target: T6, Polyadenylate-binding protein 1; test: MLLE domain peptide-binding blockers, IC50 – biochemical, fluorescence polarization, FITC-PAM2 peptide, dose response (AID 602259); format: functional; settings: read-out: IC50_Mean

Chain of Voltage-dependent T-type calcium channel subunit alpha-1H (O95180 whole entry): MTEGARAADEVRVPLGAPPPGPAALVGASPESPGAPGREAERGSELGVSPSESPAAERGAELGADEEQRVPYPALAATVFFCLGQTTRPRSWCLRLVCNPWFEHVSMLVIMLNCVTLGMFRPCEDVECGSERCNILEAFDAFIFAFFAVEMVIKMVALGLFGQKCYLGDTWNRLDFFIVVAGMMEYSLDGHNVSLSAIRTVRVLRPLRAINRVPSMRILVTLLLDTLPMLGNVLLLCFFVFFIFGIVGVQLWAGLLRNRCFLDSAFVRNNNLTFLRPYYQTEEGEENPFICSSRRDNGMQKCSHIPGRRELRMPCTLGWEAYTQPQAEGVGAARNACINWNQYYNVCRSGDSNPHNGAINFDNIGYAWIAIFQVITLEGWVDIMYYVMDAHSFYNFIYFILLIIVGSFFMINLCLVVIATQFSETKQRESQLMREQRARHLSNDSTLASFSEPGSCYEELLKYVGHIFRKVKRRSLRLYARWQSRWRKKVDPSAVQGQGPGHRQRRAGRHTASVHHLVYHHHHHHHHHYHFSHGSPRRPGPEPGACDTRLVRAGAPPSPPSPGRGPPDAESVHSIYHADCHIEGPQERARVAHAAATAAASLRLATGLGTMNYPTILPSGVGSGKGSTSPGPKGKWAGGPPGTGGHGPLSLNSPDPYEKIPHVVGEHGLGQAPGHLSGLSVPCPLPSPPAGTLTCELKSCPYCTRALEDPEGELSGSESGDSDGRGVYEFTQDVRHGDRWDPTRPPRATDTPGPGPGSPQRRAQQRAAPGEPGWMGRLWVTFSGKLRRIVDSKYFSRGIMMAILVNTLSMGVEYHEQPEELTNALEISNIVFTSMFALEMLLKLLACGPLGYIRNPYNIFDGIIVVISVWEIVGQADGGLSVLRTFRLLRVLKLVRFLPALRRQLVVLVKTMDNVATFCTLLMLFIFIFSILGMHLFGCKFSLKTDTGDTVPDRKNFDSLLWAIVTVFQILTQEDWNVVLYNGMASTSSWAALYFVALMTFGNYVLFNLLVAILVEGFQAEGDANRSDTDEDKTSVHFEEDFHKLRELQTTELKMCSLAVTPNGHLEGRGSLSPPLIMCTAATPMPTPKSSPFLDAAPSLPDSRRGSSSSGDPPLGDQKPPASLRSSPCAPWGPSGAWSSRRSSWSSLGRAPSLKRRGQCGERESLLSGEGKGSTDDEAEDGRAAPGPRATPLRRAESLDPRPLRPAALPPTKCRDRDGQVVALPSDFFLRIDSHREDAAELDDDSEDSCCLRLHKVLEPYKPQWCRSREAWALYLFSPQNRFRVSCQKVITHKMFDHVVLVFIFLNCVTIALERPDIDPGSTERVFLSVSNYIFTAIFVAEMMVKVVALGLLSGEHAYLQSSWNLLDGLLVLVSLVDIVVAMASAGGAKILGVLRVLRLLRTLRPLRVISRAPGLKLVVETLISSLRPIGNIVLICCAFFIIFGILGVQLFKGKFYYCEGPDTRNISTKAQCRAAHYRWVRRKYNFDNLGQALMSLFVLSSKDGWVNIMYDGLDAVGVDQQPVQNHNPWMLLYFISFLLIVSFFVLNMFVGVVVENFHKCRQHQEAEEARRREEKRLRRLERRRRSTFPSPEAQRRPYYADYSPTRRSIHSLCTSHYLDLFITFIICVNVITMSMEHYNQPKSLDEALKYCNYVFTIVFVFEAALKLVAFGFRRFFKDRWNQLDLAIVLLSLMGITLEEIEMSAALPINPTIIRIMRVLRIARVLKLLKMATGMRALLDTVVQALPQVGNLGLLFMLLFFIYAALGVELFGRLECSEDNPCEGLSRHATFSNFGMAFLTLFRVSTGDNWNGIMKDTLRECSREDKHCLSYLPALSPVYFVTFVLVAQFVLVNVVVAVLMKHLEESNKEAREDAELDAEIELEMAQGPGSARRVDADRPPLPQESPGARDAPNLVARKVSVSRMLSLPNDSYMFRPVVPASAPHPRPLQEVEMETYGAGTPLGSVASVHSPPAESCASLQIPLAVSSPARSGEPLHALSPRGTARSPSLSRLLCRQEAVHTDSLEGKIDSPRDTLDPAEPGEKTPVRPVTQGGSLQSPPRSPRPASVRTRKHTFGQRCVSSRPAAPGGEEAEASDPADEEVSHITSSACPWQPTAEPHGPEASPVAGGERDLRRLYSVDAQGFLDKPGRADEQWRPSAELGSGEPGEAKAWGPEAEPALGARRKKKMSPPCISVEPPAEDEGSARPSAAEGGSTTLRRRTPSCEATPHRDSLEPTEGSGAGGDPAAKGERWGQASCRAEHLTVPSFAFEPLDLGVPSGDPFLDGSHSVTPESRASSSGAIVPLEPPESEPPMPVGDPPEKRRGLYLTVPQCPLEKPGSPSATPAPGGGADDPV
T6 sequence (P11940 whole entry, the tested form may be a part): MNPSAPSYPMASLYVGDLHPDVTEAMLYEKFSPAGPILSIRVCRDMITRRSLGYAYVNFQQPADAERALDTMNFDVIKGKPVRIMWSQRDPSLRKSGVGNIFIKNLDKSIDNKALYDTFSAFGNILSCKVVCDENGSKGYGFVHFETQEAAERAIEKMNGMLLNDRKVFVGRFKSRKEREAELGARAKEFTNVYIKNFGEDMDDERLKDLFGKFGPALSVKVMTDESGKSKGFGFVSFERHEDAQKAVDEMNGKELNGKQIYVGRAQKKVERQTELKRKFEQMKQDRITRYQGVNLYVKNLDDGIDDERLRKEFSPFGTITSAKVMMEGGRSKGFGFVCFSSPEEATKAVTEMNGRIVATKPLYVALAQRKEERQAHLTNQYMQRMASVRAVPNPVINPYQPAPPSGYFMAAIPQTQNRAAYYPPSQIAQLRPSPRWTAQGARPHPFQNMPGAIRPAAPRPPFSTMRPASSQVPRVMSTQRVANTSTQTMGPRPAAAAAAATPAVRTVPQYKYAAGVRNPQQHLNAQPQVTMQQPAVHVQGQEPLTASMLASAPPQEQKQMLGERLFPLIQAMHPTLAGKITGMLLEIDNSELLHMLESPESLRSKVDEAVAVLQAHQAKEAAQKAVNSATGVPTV
Chain of FAD-linked sulfhydryl oxidase ALR (P55789 whole entry): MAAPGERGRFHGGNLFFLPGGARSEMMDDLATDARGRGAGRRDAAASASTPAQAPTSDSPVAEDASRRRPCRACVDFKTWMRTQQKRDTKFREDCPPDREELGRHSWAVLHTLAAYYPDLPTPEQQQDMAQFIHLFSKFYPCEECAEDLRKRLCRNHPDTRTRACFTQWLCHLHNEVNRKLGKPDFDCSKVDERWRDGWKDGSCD
Chain of Large T antigen (P03070 whole entry): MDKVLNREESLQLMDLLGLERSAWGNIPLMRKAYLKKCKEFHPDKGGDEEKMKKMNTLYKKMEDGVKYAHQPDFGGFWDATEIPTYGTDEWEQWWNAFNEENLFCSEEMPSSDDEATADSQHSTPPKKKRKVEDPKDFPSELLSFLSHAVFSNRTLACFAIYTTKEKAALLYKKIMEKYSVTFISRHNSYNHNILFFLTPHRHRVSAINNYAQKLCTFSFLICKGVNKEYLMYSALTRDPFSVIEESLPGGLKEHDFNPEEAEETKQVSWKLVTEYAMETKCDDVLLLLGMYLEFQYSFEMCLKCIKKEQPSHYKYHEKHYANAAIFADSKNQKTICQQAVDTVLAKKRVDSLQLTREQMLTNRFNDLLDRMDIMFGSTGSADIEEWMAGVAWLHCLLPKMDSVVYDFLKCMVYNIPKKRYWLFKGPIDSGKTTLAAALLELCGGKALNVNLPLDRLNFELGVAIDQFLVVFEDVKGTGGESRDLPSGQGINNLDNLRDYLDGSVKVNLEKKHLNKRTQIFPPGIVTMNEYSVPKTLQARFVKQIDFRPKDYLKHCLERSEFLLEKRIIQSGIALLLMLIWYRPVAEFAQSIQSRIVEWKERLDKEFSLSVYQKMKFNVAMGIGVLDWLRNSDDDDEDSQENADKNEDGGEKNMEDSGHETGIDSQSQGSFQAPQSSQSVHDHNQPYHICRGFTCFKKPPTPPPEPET
Chain of Genome polyprotein (P29990 2492-3391 limits assumed): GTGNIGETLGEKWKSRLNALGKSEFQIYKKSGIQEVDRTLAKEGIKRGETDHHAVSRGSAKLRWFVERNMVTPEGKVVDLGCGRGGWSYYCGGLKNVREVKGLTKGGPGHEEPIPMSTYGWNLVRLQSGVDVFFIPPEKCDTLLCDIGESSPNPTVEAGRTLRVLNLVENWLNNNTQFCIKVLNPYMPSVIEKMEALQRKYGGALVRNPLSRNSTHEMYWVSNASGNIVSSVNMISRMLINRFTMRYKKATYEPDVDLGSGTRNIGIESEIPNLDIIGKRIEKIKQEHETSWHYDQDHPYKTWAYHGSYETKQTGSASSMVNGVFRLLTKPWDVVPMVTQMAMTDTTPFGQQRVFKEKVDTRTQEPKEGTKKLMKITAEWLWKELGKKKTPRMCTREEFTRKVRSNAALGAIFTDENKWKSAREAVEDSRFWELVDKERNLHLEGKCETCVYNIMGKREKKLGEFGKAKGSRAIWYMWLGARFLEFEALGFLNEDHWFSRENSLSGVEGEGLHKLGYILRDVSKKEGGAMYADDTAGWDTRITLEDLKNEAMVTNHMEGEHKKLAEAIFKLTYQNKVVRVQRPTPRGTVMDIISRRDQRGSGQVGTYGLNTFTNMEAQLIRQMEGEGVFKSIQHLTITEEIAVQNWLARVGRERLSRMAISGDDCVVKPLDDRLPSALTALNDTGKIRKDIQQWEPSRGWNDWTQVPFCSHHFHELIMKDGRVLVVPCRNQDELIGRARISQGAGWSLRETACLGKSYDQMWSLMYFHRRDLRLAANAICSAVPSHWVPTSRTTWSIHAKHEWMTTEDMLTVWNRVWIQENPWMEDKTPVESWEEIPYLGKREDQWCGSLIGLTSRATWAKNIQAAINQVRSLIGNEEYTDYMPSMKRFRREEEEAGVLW

Compound: COc1ccc(/C=N/N=C2\SC(CC(=O)O)C(=O)N2c2ccccc2)c(OC)c1 (stereo not drawn)
- IC50 (Leucine aminopeptidase): 95.3 µM (active)

Compound: Clc1cccc(Cl)c1OCCOCCNCc1ccccc1
- IC50 [1]: > 80 µM (inactive)

Compound: CCOC(=O)c1[nH]c(C)c(C(=O)Nc2ccc(C)cc2C)c1C
- IC50 [1]: > 80 µM (inactive)

Compound: COc1ccc(S(=O)(=O)N2CCC(C(=O)N3CCc4ccccc4C3)CC2)cc1C
- EC50 [2]: 4.51 µM (active)

Compound: Cc1sc(NC(=O)C2CCCCC2C(=O)O)c(C(N)=O)c1-c1ccc(C(C)C)cc1 (stereo not drawn)
- IC50 (Leucine aminopeptidase): 7.2 µM (active)
- IC50 (Genome polyprotein): 62.7 µM (active)

Compound: Cc1cc(C)cc(N(CC(=O)NCc2ccc3c(c2)OCO3)C(=O)CCC(=O)Nc2ccccn2)c1
- EC50 [2]: 2.74 µM (active)

Compound: Cc1cc2oc(C(=O)Nc3ccc(S(N)(=O)=O)cc3)c(C)c2cc1Cl
- IC50 [3]: 6.72 µM (active)
- IC50 [4]: > 50 µM (inactive)

Compound: Cc1[nH]c2ccccc2c1C(=O)CN1C(=O)NC2(CC(C)CC(C)(C)C2)C1=O (stereo not drawn)
- EC50 [5]: 11.4 µM (active)
- EC50 [6]: 22.3 µM (active)
- EC50 [7]: 10.8 µM (active)
- IC50 [8]: 52.8 µM (inactive)

Compound: COc1ccc(CC(=O)Nc2cccc(-c3ccc4nnc(C)n4n3)c2)cc1
- IC50 [8]: > 80 µM (inactive)

Compound: Cc1ccc2nc(O)c(CN(Cc3ccco3)C(=O)c3ccncc3)cc2c1
- CC50 [9]: 13.5 µM (active)

Compound: Cc1nn(-c2c(Cl)cc(Cl)cc2Cl)c(=O)c2ccccc12
- CC50 [9]: 30.1 µM (active)

Compound: O=C(CCNc1ccc(Cl)c(C(F)(F)F)c1)c1ccco1
- EC50 [2]: 9.96 µM (active)
- IC50 (cells): 31 µM (active)

Compound: O=C(Nc1nncs1)c1ccccc1Br
- IC50 (Leucine aminopeptidase): 16 µM (active)

Compound: CC(=O)Oc1ccc(-c2ccc(C(=O)NCCc3ccc(S(N)(=O)=O)cc3)cc2)cc1
- IC50 [3]: 11.4 µM (active)
- IC50 [4]: > 50 µM (inactive)

Compound: COc1ccc([N+](=O)[O-])cc1CSc1nnc(NC(C)=O)s1
- CC50 [9]: > 40 µM (active)

Compound: CCCC(C(=O)NC1CCCC1)N(C(=O)Cn1nnc(-c2ccc(C)o2)n1)C1CCCC1 (stereo not drawn)
- IC50 [3]: 0.221 µM (active)
- IC50 [4]: 45 µM (active)

Compound: CCOc1ccc(NC(=O)CN2C(=O)CSC(C)C2=O)cc1 (stereo not drawn)
- IC50 (Leucine aminopeptidase): 1.21 µM (active)

Compound: C/C(CC(=O)Nc1ccc2ccccc2c1)=N\NC(=O)c1ccc(O)c(O)c1
- IC50 (Large T antigen): 14 µM (active)
- AC50 [10]: 4.3 µM (active)
- AC50 [11]: 9.2 µM (active)

Compound: O=C(CCCOc1ccccc1)N1CCN(c2ccc(F)cc2)CC1
- EC50 [2]: 4.49 µM (active)

Compound: O=C(NC(=S)NNS(=O)(=O)c1ccccc1)c1cccnc1
- IC50 (Leucine aminopeptidase): 43.9 µM (active)
- EC50 [12]: > 300 µM (not active)
- EC50 [13]: > 300 µM (not active)
- IC50 [14]: > 66 µM (inactive)
- IC50 [15]: > 66 µM (inactive)

Compound: NS(=O)(=O)c1ccc(-c2ccc(C=C3C(=O)c4ccccc4C3=O)o2)cc1
- IC50 [3]: > 56.8 µM (not active)
- IC50 [4]: > 50 µM (inactive)

Compound: CCc1ccc(/C=C2/SC(=S)N(CCC(=O)Nc3cccc(C(=O)O)c3)C2=O)cc1
- IC50 [8]: > 80 µM (inactive)

Compound: CCOc1ccc(N(C)S(=O)(=O)c2ccc(-c3cc(C)no3)s2)cc1
- IC50 [1]: > 80 µM (inactive)
